Test results: publication PMC6515286 (Molecules, 2019)
Where a name gives a salt, the structure may show the parent alone.

Tests used:
[1] = target: 5-HT2A receptor (Homo sapiens, UniProt P28223); assay: in vitro binding to 5-HT2A receptor (screening protocol); details: read-out: Ki ± SD 5-HT2A
Protocol: (§1) The ligands obtained in the synthesis (10a–r) were tested in vitro for binding to D2, 5-HT1A, 5-HT2A, 5-HT6, and 5-HT7 receptors on the basis of the screening protocol described previously (Table 6).

[2] = target: 5-HT6 receptor (Homo sapiens, UniProt P50406); assay: in vitro binding to 5-HT6 receptor (screening protocol); details: read-out: Ki ± SD 5-HT6
Protocol: as §1

[3] = target: D2 receptor (Homo sapiens, UniProt P14416); assay: in vitro binding to D2 receptor (screening protocol); details: read-out: Ki ± SD D2
Protocol: as §1

[4] = target: 5-HT7 receptor (Homo sapiens, UniProt P34969); assay: in vitro binding to 5-HT7 receptor (screening protocol); details: read-out: Ki ± SD 5-HT7
Protocol: as §1

[5] = target: T1, 5-HT1A receptor (Homo sapiens, UniProt P08908); assay: in vitro binding to 5-HT1A receptor (screening protocol); details: read-out: Ki ± SD 5-HT1A
T1 sequence (P08908 1-422): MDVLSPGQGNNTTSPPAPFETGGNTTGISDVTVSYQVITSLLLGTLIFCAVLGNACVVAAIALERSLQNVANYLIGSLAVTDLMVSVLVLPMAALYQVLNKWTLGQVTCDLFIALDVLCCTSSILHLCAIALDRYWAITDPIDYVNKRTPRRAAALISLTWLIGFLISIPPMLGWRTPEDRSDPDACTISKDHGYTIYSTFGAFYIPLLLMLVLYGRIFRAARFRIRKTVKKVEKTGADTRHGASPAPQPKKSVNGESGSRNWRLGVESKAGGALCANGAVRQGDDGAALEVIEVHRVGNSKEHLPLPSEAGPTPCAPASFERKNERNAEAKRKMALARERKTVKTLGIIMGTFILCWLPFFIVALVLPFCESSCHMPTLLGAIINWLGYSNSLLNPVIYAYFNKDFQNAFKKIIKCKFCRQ
Protocol: as §1

Sequence of D2 receptor (P14416 whole entry): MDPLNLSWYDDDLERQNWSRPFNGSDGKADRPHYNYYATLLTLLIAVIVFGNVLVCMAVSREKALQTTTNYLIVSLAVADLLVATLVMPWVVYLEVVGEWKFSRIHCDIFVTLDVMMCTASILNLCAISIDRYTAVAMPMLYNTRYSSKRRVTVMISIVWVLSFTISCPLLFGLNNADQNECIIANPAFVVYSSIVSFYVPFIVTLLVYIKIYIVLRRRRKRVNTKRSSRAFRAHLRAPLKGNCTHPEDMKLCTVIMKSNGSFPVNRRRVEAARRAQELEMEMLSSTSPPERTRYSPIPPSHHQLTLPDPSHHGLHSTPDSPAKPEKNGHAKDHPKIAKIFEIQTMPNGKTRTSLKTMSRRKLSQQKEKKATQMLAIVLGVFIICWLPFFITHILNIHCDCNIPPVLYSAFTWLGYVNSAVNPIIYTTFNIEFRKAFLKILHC
Sequence of 5-HT2A receptor (P28223 whole entry): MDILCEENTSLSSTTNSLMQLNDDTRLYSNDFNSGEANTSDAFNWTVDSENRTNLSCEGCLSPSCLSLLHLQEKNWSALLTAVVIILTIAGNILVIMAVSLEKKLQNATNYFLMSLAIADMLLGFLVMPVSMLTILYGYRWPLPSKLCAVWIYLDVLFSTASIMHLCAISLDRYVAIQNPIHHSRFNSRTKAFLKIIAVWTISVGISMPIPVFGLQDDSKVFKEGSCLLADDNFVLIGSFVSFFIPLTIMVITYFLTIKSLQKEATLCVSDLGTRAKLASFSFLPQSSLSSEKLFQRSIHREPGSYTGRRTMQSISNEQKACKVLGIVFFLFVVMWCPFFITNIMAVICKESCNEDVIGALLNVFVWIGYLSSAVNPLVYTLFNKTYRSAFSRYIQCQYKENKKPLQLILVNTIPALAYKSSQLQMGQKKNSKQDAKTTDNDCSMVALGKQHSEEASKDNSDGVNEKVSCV
Sequence of 5-HT6 receptor (P50406 whole entry): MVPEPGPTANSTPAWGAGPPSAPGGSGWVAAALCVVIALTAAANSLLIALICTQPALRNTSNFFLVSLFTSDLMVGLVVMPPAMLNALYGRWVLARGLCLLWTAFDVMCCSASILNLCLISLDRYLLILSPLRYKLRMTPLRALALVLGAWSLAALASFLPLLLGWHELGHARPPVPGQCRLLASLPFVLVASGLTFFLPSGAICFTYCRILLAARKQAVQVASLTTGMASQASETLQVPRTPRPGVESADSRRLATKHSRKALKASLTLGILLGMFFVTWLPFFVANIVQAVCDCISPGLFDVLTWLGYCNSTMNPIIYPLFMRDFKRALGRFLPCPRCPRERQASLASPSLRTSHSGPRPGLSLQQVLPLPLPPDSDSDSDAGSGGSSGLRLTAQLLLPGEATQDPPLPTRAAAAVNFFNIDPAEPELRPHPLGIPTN
Sequence of 5-HT7 receptor (P34969 whole entry): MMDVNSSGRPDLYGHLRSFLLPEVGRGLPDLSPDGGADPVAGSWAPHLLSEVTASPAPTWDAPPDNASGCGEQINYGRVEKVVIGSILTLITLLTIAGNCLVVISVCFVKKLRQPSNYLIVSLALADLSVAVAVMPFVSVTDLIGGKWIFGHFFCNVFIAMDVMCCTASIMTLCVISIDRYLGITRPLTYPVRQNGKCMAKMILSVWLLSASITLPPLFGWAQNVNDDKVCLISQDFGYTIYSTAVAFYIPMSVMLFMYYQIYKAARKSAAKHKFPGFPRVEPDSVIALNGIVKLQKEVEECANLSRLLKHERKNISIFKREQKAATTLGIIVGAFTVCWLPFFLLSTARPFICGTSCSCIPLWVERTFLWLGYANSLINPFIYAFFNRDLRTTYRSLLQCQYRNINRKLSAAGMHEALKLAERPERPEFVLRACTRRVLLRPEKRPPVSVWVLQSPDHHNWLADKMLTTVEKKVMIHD

| Ki [1] [nM] | Ki [2] [nM] | Ki [3] [nM] | Ki [4] [nM] | Ki [5] [nM] | Structure (SMILES) |
| --- | --- | --- | --- | --- | --- |
| 181 ± 22 | 1430 ± 294 | 116 ± 19 | 157 ± 13 |  | O=c1n(CCCN2CCN(c3cccc(Cl)c3Cl)CC2)nc2ccccn12 [10a, 2-[3-[4-(2,3-dichlorophenyl)piperazin-1-yl]propyl]-[1,2,4]triazolo[4,3-a]pyridin-3-one hydrochloride] |
| 969 ± 114 | 36400 | 1650 ± 203 | 7420 ± 625 | 1550 ± 314 | O=c1n(CCCN2CCN(c3ccccc3F)CC2)nc2ccccn12 [10b, 2-[3-[4-(2-fluorophenyl)piperazin-1-yl]propyl]-[1,2,4]triazolo[4,3-a]pyridin-3-one hydrochloride] |
| 178 ± 25 | 3250 ± 401 | 122 ± 8 | 174 ± 34 | 459 ± 36 | O=c1n(CCCN2CCN(c3ncccn3)CC2)nc2ccccn12 [10c, 2-[3-(4-pyrimidin-2-ylpiperazin-1-yl)propyl]-[1,2,4]triazolo[4,3-a]pyridin-3-one hydrochloride] |
| 6710 ± 952 | 9460 ± 1140 | 152 ± 17 | 539 ± 68 | 593 ± 81 | CCOc1ccccc1N1CCN(CCCn2nc3ccccn3c2=O)CC1 [10d, 2-[3-[4-(2-ethoxyphenyl)piperazin-1-yl]propyl]-[1,2,4]triazolo[4,3-a]pyridin-3-one hydrochloride] |
| 342 ± 48 | 1940 ± 281 | 137 ± 11 | 278 ± 19 | 16 ± 2 | O=c1n(CCCCCCN2CCN(c3cccc(Cl)c3)CC2)nc2ccccn12 [10e, 2-[6-[4-(3-chlorophenyl)piperazin-1-yl]hexyl]-[1,2,4]triazolo[4,3-a]pyridin-3-one hydrochloride] |
| 2600 ± 318 | 3570 ± 563 | 522 ± 71 | 2600 ± 359 | 49 ± 4 | O=c1n(CCCCCCN2CCN(c3ccccc3Cl)CC2)nc2ccccn12 [10f, 2-[6-[4-(2-chlorophenyl)piperazin-1-yl]hexyl]-[1,2,4]triazolo[4,3-a]pyridin-3-one hydrochloride] |
| 234 ± 46 | 2060 ± 173 | 362 ± 17 | 435 ± 61 | 27 ± 3 | O=c1n(CCCCCCN2CCN(c3ccc(Cl)cc3)CC2)nc2ccccn12 [10g, 2-[6-[4-(4-chlorophenyl)piperazin-1-yl]hexyl]-[1,2,4]triazolo[4,3-a]pyridin-3-one hydrochloride] |
| 77 ± 14 | 576 ± 82 | 310 ± 42 | 196 ± 29 | 19 ± 3 | O=c1n(CCCCCCN2CCN(c3ccc(Cl)c(Cl)c3)CC2)nc2ccccn12 [10h, 2-[6-[4-(3,4-dichlorophenyl)piperazin-1-yl]hexyl]-[1,2,4]triazolo[4,3-a]pyridin-3-one hydrochloride] |
| 417 ± 52 | 4740 ± 687 | 195 ± 11 | 993 ± 214 | 7 ± 2 | O=c1n(CCCCCCN2CCN(c3ccccc3F)CC2)nc2ccccn12 [10i, 2-[6-[4-(2-fluorophenyl)piperazin-1-yl]hexyl]-[1,2,4]triazolo[4,3-a]pyridin-3-one hydrochloride] |
| 841 ± 105 | 11500 | 57 ± 6 | 219 ± 36 | 4 ± 1 | COc1ccccc1N1CCN(CCCCCCn2nc3ccccn3c2=O)CC1 [10j, 2-[6-[4-(2-methoxyphenyl)piperazin-1-yl]hexyl]-[1,2,4]triazolo[4,3-a]pyridin-3-one hydrochloride] |
| 343 ± 21 | 3500 ± 537 | 21 ± 3 | 1020 ± 184 | 9 ± 2 | COc1cccc(N2CCN(CCCCCCn3nc4ccccn4c3=O)CC2)c1 [10k, 2-[6-[4-(3-methoxyphenyl)piperazin-1-yl]hexyl]-[1,2,4]triazolo[4,3-a]pyridin-3-one hydrochloride] |
| 3900 ± 432 | 5620 ± 743 | 350 ± 54 | 8300 ± 1350 | 826 ± 91 | COc1ccc(N2CCN(CCCCCCn3nc4ccccn4c3=O)CC2)cc1 [10l, 2-[6-[4-(4-methoxyphenyl)piperazin-1-yl]hexyl]-[1,2,4]triazolo[4,3-a]pyridin-3-one hydrochloride] |
| 1540 ± 225 | 4820 ± 581 | 1640 ± 219 | 251 ± 52 | 9 ± 2 | CCOc1ccccc1N1CCN(CCCCCCn2nc3ccccn3c2=O)CC1 [10m, 2-[6-[4-(2-ethoxyphenyl)piperazin-1-yl]hexyl]-[1,2,4]triazolo[4,3-a]pyridin-3-one hydrochloride] |
| 1720 ± 193 | 4640 ± 341 | 10 ± 2 | 1050 ± 91 | 18 ± 3 | O=c1n(CCCCCCN2CCN(c3ccccn3)CC2)nc2ccccn12 [10n, 2-[6-[4-(2-pyridyl)piperazin-1-yl]hexyl]-[1,2,4]triazolo[4,3-a]pyridin-3-one hydrochloride] |
| 10600 | 7220 ± 827 | 202 ± 31 | 5570 ± 438 | 104 ± 12 | O=c1n(CCCCCCN2CCN(c3ncccn3)CC2)nc2ccccn12 [10o, 2-[6-(4-pyrimidin-2-ylpiperazin-1-yl)hexyl]-[1,2,4]triazolo[4,3-a]pyridin-3-one hydrochloride] |
| 391 ± 27 | 3330 ± 197 | 1530 ± 116 | 404 ± 67 | 28 ± 4 | O=c1n(CCCCCCN2CCN(c3ccccc3)CC2)nc2ccccn12 [10p, 2-[6-(4-phenylpiperazin-1-yl)hexyl]-[1,2,4]triazolo[4,3-a]pyridin-3-one hydrochloride] |
| 328 ± 49 | 1190 ± 165 | 191 ± 14 | 19 ± 3 | 20 ± 3 | O=c1n(CCCCCCN2CCN(c3ccccc3-c3ccccc3)CC2)nc2ccccn12 [10r, 2-[6-[4-(2-phenylphenyl)piperazin-1-yl]hexyl]-[1,2,4]triazolo[4,3-a]pyridin-3-one hydrochloride] |
